# Experimental data: patent US20250034161A1, “SPIROCYCLIC COMPOUND AS KRAS-G12C INHIBITOR” (Shanghai Euregen Biopharma Co., Ltd., priority 2020, published 2025)
# Experiments:
# [1] = system: phosphorylation level of ERK in NCI-H358 cells; assay: NCI-H358 pERK inhibitory activity (HTRF phospho-ERK); type: cell-based; conditions: Homo sapiens, 1 hour incubation
# Method: Test purpose: to detect the inhibitory effect of the test compound on the phosphorylation level of ERK in NCI-H358 cells. • 2. […] Test method:
# NCI-H358 cells suspension was seeded at 80 μL per well in a clear 96-well cell culture plate, with 10000 cells each well. The cell culture plate was placed in an incubator and incubated overnight at 37° C. under 5% CO2. After incubation, the cell supernatant was discarded, 80 μL of PRMI1640 medium containing 0.02% serum was added to each well, and the cell culture plate was placed in an incubator and incubated overnight at 37° C., under 5% CO2. The test compound was diluted with 100% DMSO to 4 mmol/L as the first concentration, and then diluted 5-fold to the 8th concentration using a pipette. 2 μL of compound or DMSO (as negative control) was taken and added with 158 μL of cell culture medium. After mixing evenly, 20 μL of the compound solution was taken and added to corresponding cell plate well. […] After incubation, the signals at 615 nm and 665 nm were read using a multi-label analyzer. The percent inhibition was calculated according to the following formula: Ratio=(signal 665 nm/signal 615 nm)×10000; the percent inhibition=(ratio of test compound-ratio of negative control)/(ratio of blank-ratio of negative control)×100%.
# [2] = system: SW837(G12C); assay: Cell selectivity test, proliferation inhibition SW837; type: cell-based; conditions: Homo sapiens, 72 hours
# From the text: • 1. Test purpose: to detect the proliferation inhibition of the test compounds on NCI-H23, NCI-H2122, HCC827, Mia paca2, A549 and SW837 cell lines. • 2. […] No. FND500); Penicillin-streptomycin was purchased from Gibco (Art. No. 15140-122); 0.25% trypsin-ethylenediaminetetraacetic acid digestive juice (Trypsin-EDTA) was purchased from Gibco (Art. No. 25200-072); dimethyl sulfoxide (DMSO) was purchased from Sigma (Art. No. D2650); 96-well cell plate was purchased from Corning (Art. No. 3610); incubator was purchased from NuAire (model number: NU-5700E); Biosafety cabinet was purchased from AuAire (model number: NU-543-600S); Inverted microscope was purchased from Nikon (Art. No. TS-100); Automated cell counter was purchased from Life technologies (model number: Countess II); Microplate reader was purchased from PerkinElmer (model number: Envision); the data processing software was GraphPad Prism 5.0. […]
# [3] = molecular target: T1, CYP1A2 (Homo sapiens, UniProt P05177); assay: CYP inhibition test, human liver microsomes, CYP1A2
# T1 sequence (P05177 1-516): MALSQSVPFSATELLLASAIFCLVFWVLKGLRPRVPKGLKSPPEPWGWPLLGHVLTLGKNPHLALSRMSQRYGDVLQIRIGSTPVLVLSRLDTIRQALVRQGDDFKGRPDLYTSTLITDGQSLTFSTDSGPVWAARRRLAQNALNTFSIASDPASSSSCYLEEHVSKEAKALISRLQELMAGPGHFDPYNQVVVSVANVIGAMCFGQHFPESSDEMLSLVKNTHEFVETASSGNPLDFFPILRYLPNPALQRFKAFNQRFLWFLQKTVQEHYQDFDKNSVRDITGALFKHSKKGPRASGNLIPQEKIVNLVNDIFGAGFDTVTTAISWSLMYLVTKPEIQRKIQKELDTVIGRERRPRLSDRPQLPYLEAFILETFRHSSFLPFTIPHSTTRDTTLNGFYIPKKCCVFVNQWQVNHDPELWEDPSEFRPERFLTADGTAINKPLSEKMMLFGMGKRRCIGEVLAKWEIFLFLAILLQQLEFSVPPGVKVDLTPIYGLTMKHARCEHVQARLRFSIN
# Method: • 1. Test purpose: to evaluate the inhibitory ability of some of the example compounds of the present invention against CYP1A2, 2B6, 2C8, 2C9, 2C19, 2D6 and 3A4 via human liver microsomes. • 2. […] Test method:
# • 1. K/Mg buffer: the components were 0.1 mol/L potassium phosphate and 5 mmol/L magnesium chloride with pH 7.4±0.1, preheated. • 2. Solution of the test compound: the test compound was dissolved in dimethyl sulfoxide to prepare a stock solution of 10 mmol/L. 8 μL of 10 mmol/L stock solution was transferred to a 96-well plate containing 12 μL of acetonitrile as the highest concentration point, at 3-fold dilution, for 8 concentrations. • 3. NADPH solution: 66.7 mg of NADPH was dissolved in 10 mL of 0.1 mol/L K/Mg buffer to obtain 8 mmol/L NADPH solution with pH 7.4. • 4. Human liver microsomal stock solution: human liver microsomes were dissolved in 0.1 mol/L K/Mg buffer to obtain 20 mg/mL stock solution. • 5. Human liver microsomal working solution: 10 μL of 20 mg/mL human liver microsomal stock solution was taken and added into 990 μL of 0.1 mol/L K/Mg buffer to prepare 0.2 mg/mL human liver microsomal solution. • 6. […]
SMILES,IC50 [1] [nM],IC50 [2] [nM],IC50 [3] [µM]
C=CC(=O)N1CCN(c2nc(=O)n(-c3c(C)ccnc3C(C)C)c3nc(-c4c(O)cccc4F)c(F)cc23)[C@@H](C)C1 [AMG510],88.3,285,> 10
C=C(F)C(=O)N1CCN(c2nc(OC[C@@H]3CCCN3C)nc3c2CCN(c2cccc4cccc(Cl)c24)C3)C[C@@H]1CC#N [MRTX849],,,> 10
